Test results taken from paper PMC3663987 (Parasitology Research, 2013).

Target: P-glycoprotein (Pgp, ABCB1) (Homo sapiens, UniProt P08183)
Assay: Pgp-Glo ATPase stimulation assay, recombinant human Pgp membranes
Assay type: biochemical

P-glycoprotein (Pgp, ABCB1), sequence (P08183 whole entry): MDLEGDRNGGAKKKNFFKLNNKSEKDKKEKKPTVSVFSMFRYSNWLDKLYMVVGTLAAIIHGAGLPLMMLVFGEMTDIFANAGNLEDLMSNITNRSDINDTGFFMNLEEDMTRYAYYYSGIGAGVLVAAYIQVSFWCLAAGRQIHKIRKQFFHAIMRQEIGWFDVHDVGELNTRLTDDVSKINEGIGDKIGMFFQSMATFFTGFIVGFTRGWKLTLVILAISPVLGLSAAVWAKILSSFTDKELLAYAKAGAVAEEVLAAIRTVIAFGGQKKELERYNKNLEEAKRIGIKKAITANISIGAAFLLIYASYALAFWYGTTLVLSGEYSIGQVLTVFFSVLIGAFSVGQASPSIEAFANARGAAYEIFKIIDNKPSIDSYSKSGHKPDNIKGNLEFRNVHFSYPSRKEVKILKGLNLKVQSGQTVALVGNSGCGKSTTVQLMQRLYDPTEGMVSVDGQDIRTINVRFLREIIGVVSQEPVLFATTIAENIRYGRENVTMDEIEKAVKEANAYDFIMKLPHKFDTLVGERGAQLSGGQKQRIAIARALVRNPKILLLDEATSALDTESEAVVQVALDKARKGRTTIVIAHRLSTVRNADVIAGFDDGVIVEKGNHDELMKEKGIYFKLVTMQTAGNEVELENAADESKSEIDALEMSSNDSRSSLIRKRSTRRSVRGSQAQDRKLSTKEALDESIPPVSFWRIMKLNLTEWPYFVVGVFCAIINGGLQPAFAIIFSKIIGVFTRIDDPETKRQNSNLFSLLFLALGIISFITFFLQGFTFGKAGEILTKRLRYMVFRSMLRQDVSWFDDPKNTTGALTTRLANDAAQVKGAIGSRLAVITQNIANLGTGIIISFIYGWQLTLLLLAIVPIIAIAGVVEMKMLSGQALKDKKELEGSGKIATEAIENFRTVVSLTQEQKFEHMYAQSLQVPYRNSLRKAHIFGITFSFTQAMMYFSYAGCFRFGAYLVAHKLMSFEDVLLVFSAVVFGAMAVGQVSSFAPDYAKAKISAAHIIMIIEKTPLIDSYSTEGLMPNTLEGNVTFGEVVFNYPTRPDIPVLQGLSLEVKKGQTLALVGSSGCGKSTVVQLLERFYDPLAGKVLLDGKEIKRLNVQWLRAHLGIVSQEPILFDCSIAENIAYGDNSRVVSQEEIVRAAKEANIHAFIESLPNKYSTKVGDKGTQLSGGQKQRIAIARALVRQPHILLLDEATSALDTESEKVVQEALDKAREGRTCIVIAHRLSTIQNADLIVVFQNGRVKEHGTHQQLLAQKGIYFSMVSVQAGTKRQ

EC50: 277 µM
Compound: O=C(Cn1ccnc1[N+](=O)[O-])NCc1ccccc1 [Bz, N-Benzyl-2-nitro-1H-imidazole-1-acetamide]
